This note sets out measurements from patent US10208071B2, “Use of agonists of formyl peptide receptor 2 for treating ocular inflammatory diseases” (Allergan, Inc., priority 2013, dated 2019).

The target of this assay is FPR2 (Homo sapiens (Human), UniProt P25090). Nature of the assay: FLIPR Ca+2 response, HEK-Gα16 cells stably expressing the human FPR2 receptor (Table 4). The class given is cell-based. To be noted: for FPR2 (efficacy): efficacy in parentheses. The procedure, abridged:
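HEK-Gα16 cells stably expressing human FPR2, loaded with 2 μM Fluo-4 in HBSS/20 mM HEPES for 40 min at 37° C., then washed. Ligands added in HBSS/Hepes and Ca+2 responses recorded on FLIPR in relative fluorescence units.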

pEC50: −log10 of the molar value.

Sequence of FPR2 (P25090 whole entry): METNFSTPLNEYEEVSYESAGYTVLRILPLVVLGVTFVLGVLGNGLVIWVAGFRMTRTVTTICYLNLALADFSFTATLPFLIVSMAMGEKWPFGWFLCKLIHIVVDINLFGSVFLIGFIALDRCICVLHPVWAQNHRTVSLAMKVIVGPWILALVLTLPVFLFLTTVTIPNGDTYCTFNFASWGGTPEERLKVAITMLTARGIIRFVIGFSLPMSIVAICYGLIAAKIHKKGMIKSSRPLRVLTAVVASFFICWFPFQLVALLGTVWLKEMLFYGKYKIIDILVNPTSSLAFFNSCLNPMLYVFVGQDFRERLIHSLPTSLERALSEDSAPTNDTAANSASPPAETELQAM

The term pEC50 denotes the negative decadic logarithm of the EC50, by convention in mol/L. A high value points to a small EC50. For the compound `CC(C)C[C@H](NC(=O)Nc1ccc(Br)cc1)C(=O)N[C@H](C(N)=O)C(C)C` [Compound 92, (2S)-N-[(2S)-1-amino-3-methyl-1-oxobutan-2-yl]-2-{[(4-bromophenyl)carbamoyl]amino}-4-methylpentanamide], the pEC50 was 8.24 and the “FPR2 (efficacy)” value is recorded as “nM (1.0)”. Turning to `CC(C)C[C@H](NC(=O)Nc1ccc(Br)cc1)C(=O)NCC(C)(C)O` [Compound 93, (2S)-2-{[(4-bromophenyl)carbamoyl]amino}-N-(2-hydroxy-2-methylpropyl)-4-methylpentanamide], the pEC50 is 8.60 and the “FPR2 (efficacy)” value is recorded as “nM (0.93)”.

On to `CC(C)C[C@H](NC(=O)Nc1ccc(Br)cc1)C(=O)NC(CO)CO` [Compound 94, (2S)-2-{[(4-bromophenyl)carbamoyl]amino}-N-(1,3-dihydroxypropan-2-yl)-4-methylpentanamide], for which the “FPR2 (efficacy)” value is on record as “nM (0.96)”. For the compound `CC(C)C[C@H](NC(=O)Nc1ccc(Br)cc1)C(=O)NCC(O)CO` (stereo partly drawn) [Compound 95, (2S)-2-{[(4-bromophenyl)carbamoyl]amino}-N-(2,3-dihydroxypropyl)-4-methylpentanamide], the “FPR2 (efficacy)” value is “nM (0.98)”. Still for that read-out and setting: the result for `CC(C)C[C@H](NC(=O)Nc1ccc(Br)cc1)C(=O)N[C@H](C)CO` [Compound 96, (2S)-2-{[(4-bromophenyl)carbamoyl]amino}-N-[(2R)-1-hydroxypropan-2-yl]-4-methylpentanamide] reads “nM (1.0)”; that for `Cc1ccc(CCC2(C)NC(=O)N(NC(=O)Nc3ccc(Br)cc3)C2=O)o1` (centres unmarked) [Compound 97, 1-(4-bromophenyl)-3-{4-methyl-4-[2-(5-methylfuran-2-yl)ethyl]-2,5-dioxoimidazolidin-1-yl}urea], “nM (0.95)”; that for `CC1(CCc2ccc(O)c(F)c2)NC(=O)N(NC(=O)Nc2ccc(Br)cc2F)C1=O` (centres unmarked) [Compound 98, 1-(4-bromo-2-fluorophenyl)-3-{4-[2-(3-fluoro-4-hydroxyphenyl)ethyl]-4-methyl-2,5-dioxoimidazolidin-1-yl}urea], “nM (0.91)”. As for `CC1(CCc2ccc(O)c(F)c2)NC(=O)N(NC(=O)Nc2ccc(Br)cc2)C1=O` (centres unmarked) [Compound 99, 1-(4-bromophenyl)-3-{4-[2-(3-fluoro-4-hydroxyphenyl)ethyl]-4-methyl-2,5-dioxoimidazolidin-1-yl}urea], the pEC50 is 8.10 and the “FPR2 (efficacy)” value is reported as “nM (1.0)”.

As to `CCC[C@H](NC(=O)[C@H](CC(C)C)NC(=O)Nc1ccc(Br)cc1)C(=O)OC(C)(C)C` [Compound 100, tert-butyl (2S)-2-{[(2S)-2-{[(4-bromophenyl)carbamoyl]amino}-4-methylpentanoyl]amino} pentanoate], the “FPR2 (efficacy)” value was “nM (1.0)”. Consider `CCC[C@H](NC(=O)[C@H](CC(C)C)NC(=O)Nc1ccc(Br)cc1)C(=O)O` [Compound 101, (2S)-2-{[(2S)-2-{[(4-bromophenyl)carbamoyl]amino}-4-methylpentanoyl]amino} pentanoic acid], for which the “FPR2 (efficacy)” value was “nM (0.95)”. For the compound `CCC[C@H](NC(=O)[C@H](CC(C)C)NC(=O)Nc1ccc(Br)cc1)C(N)=O` [Compound 102, (2S)-N-[(2S)-1-amino-1-oxopentan-2-yl]-2-{[(4-bromophenyl)carbamoyl]amino}-4-methylpentanamide], the pEC50 is 8.14 and the “FPR2 (efficacy)” value was “nM (0.99)”. For `CC(C)C[C@H](NC(=O)Nc1ccc(Br)cc1)C(=O)N[C@H](C(=O)O)c1ccccc1` [Compound 103, (2S)-{[(2S)-2-{[(4-bromophenyl)carbamoyl]amino}-4-methylpentanoyl]amino} (phenyl)ethanoic acid], the “FPR2 (efficacy)” value was “nM (1.0)”. The same measure, in the same setting: the result for `CC(C)C[C@H](NC(=O)Nc1ccc(Br)cc1)C(=O)NCc1nnn[nH]1` [Compound 104, (2S)-2-{[(4-bromophenyl)carbamoyl]amino}-4-methyl-N-(1H-tetrazol-5-ylmethyl)pentanamide] reads “nM (0.81)”. Still for that read-out and setting: to `CCOP(=O)(O)CNC(=O)[C@H](CC(C)C)NC(=O)Nc1ccc(Br)cc1` [Compound 105, ethyl hydrogen ({[(2S)-2-{[(4-bromophenyl)carbamoyl]amino}-4-methylpentanoyl]amino}methyl)phosphonate] belongs “nM (0.88)”. In the case of `CC1(CCc2ccccc2O)NC(=O)N(NC(=O)Nc2ccc(Br)cc2F)C1=O` (centres unmarked) [Compound 106, 1-(4-bromo-2-fluorophenyl)-3-{4-[2-(2-hydroxyphenyl)ethyl]-4-methyl-2,5-dioxoimidazolidin-1-yl}urea], the pEC50 was 8.40 and the “FPR2 (efficacy)” value is reported as “nM (0.91)”.

As to `CC1(CCc2cccc(O)c2)NC(=O)N(NC(=O)Nc2ccc(Br)cc2F)C1=O` (centres unmarked) [Compound 107, 1-(4-bromo-2-fluorophenyl)-3-{4-[2-(3-hydroxyphenyl)ethyl]-4-methyl-2,5-dioxoimidazolidin-1-yl}urea], the negative logarithm of the EC50 (pEC50) was 8.66 and the “FPR2 (efficacy)” value was “nM (0.79)”. For `CC1(CCc2cccc(O)c2)NC(=O)N(NC(=O)Nc2ccc(Br)cc2)C1=O` (centres unmarked) [Compound 108, 1-(4-bromophenyl)-3-{4-[2-(3-hydroxyphenyl)ethyl]-4-methyl-2,5-dioxoimidazolidin-1-yl}urea], the pEC50 is 8.68 and the “FPR2 (efficacy)” value is recorded as “nM (1.0)”. Consider `CC1(CCc2ccccc2O)NC(=O)N(NC(=O)Nc2ccc(Br)cc2)C1=O` (centres unmarked) [Compound 109, 1-(4-bromophenyl)-3-{4-[2-(2-hydroxyphenyl)ethyl]-4-methyl-2,5-dioxoimidazolidin-1-yl}urea], for which the “FPR2 (efficacy)” value is listed as “nM (0.93)”. With `CC(C)CC(C)(NC(=O)Nc1ccc(Br)cc1)C(=O)O` (centres unmarked) [Compound 110, 2-{[(4-bromophenyl)carbamoyl]amino}-2,4-dimethylpentanoic acid], the pEC50 is 7.71 and the “FPR2 (efficacy)” value is on record as “nM (0.98)”.

Take `CC(C)CC(C)(NC(=O)Nc1ccc(Br)cc1)C(=O)NCC(=O)O` (centres unmarked) [Compound 111, [(2-{[(4-bromophenyl)carbamoyl]amino}-2,4-dimethylpentanoyl)amino] acetic acid]: the pEC50 is 7.72 and the “FPR2 (efficacy)” value is given as “nM (0.99)”.

Consider `CCOP(=O)(CNC(=O)[C@H](CC(C)C)NC(=O)Nc1ccc(Br)cc1)OCC` [Compound 112, diethyl ({[(2S)-2-{[(4-bromophenyl)carbamoyl]amino}-4-methylpentanoyl]amino}methyl)phosphonate], for which the pEC50 was 9.32.

`CCC(CC)(NC(=O)Nc1ccc(Br)cc1)C(=O)NCC(=O)O` [Compound 113]: the pEC50 is 7.73 and the “FPR2 (efficacy)” value was “nM (1.0)”. As for `CCOP(=O)(CNC(=O)[C@@H](NC(=O)Nc1ccc(Br)cc1)[C@@H](C)CC)OCC` [Compound 114, diethyl ({[(2S,3S)-2-{[(4-bromophenyl)carbamoyl]amino}-3-methylpentanoyl]amino}methyl)phosphonate], the pEC50 is 8.54 and the “FPR2 (efficacy)” value is recorded as “nM (1.0)”. As for `CCOP(=O)(O)CNC(=O)[C@@H](NC(=O)Nc1ccc(Br)cc1)[C@@H](C)CC` [Compound 115, ethyl hydrogen ({[(2S,3S)-2-{[(4-bromophenyl)carbamoyl]amino}-3-methylpentanoyl]amino}methyl)phosphonate], the pEC50 was 8.57 and the “FPR2 (efficacy)” value is “nM (0.88)”. Take `CC(C)C[C@H](NC(=O)Nc1ccc(Br)cc1)C(=O)NCc1cc(O)no1` [Compound 116, (2S)-2-{[(4-bromophenyl)carbamoyl]amino}-N-[(3-hydroxy-1,2-oxazol-5-yl)methyl]-4-methylpentanamide]: the “FPR2 (efficacy)” value is recorded as “nM (1.0)”.

Take `CCC[C@H](NC(=O)Nc1ccc(Br)cc1)C(=O)NCP(=O)(OCC)OCC` [Compound 117, diethyl ({[(2S)-2-{[(4-bromophenyl)carbamoyl]amino}pentanoyl]amino}methyl) phosphonate]: the negative-log EC50 (pEC50) was 9.57 and the “FPR2 (efficacy)” value is reported as “nM (1.0)”. `CCOP(=O)(CNC(=O)[C@H](Cc1ccccc1)NC(=O)Nc1ccc(Br)cc1)OCC` [Compound 118, diethyl ({[(2S)-2-{[(4-bromophenyl)carbamoyl]amino}-3-phenylpropanoyl]amino}methyl)phosphonate]: the pEC50 is 7.79 and the “FPR2 (efficacy)” value is on record as “nM (0.93)”. `CCOP(=O)(CCNC(=O)[C@H](CC(C)C)NC(=O)Nc1ccc(Br)cc1)OCC` [Compound 119, diethyl (2-{[(2S)-2-{[(4-bromophenyl)carbamoyl]amino}-4-methylpentanoyl]amino}ethyl) phosphonate] showed a pEC50 of 7.79. Take `CC(C)C[C@H](NC(=O)Nc1ccc(Br)cc1)C(=O)NCC(=O)N(C)C` [Compound 120, (2S)-2-{[(4-bromophenyl)carbamoyl]amino}-N-[2-(dimethylamino)-2-oxoethyl]-4-methylpentanamide]: the pEC50 was 8.77 and the “FPR2 (efficacy)” value is listed as “nM (0.99)”.

On to `CC(C)C[C@H](NC(=O)Nc1ccc(I)cc1)C(=O)O` [Compound 121, (2S)-2-{[(4-iodophenyl)carbamoyl]amino}-4-methylpentanoic acid], for which the pEC50 is 8.40 and the “FPR2 (efficacy)” value is reported as “nM (0.93)”.

In the case of `CCC[C@H](NC(=O)Nc1ccc(Br)cc1)C(=O)NCP(=O)(O)OCC` [Compound 123, ethyl hydrogen ({[(2S)-2-{[(4-bromophenyl)carbamoyl]amino}pentanoyl]amino}methyl) phosphonate], the “FPR2 (efficacy)” value is reported as “nM (0.96)”. With `CC(C)C[C@H](NC(=O)Nc1ccc(C(F)(F)F)cc1)C(=O)NCC(=O)O` [Compound 124, {[(2S)-4-methyl-2-({[4-(trifluoromethyl)phenyl]carbamoyl}amino)pentanoyl]amino}acetic acid], the “FPR2 (efficacy)” value is given as “nM (1.0)”. `CCC[C@H](NC(=O)Nc1ccc(Br)cc1)C(=O)NCP(=O)(OC(C)C)OC(C)C` [Compound 125, dipropan-2-yl ({[(2S)-2-{[(4-bromophenyl)carbamoyl]amino}pentanoyl]amino}methyl) phosphonate]: the pEC50 was 8.92 and the “FPR2 (efficacy)” value was “nM (1.0)”.
